Data: US20040265300A1, “Chimeric molecules containing a module able to target specific cells and a module regulating the apoptogenic function of the permeability transition pore complex (PTPC)” (priority 2001, published 2004)
Ends that are not written are not given here. Peptide text beside a SMILES is read from it. * marks the point of attachment. Biotin = O=C1N[C@H]2[C@H](CS[C@H]2CCCCC(=O)*)N1

Legend:
[1] = system: permeability transition pore (PTP); assay: Swelling of isolated mitochondria (large amplitude swelling, 90° light scattering); type: biochemical, rat; design: key to Induction of Mitochondrial swelling (sw): +++ rapid sw; ++ low sw; + very low sw; − no sw; conditions: for Induction of Mitochondrial swelling (sw): 5 μM, t 20 min
Procedure: Mitochondria are purified from rat liver, as described (Costantini et al., 1996), and resuspended in 250 mM sucrose +0.1 mM EGTA +10 mM -tris[hydroxymethyl]methyl-2-Aminoethanesulfonic acid, pH=7.4). For the induction of PT, mitochondria (0.5 mg protein per ml) are resuspended in PT buffer (200 mM sucrose, 10 mM Tris-MOPS (pH 7.4), 5 MM Tris-succinate, 1 mM Tris-phosphate, 2 μM rotenone, and 10 μM EGTA-Tris), and monitored in an F4500 fluorescence spectrometer (Hitachi, Tokyo, Japan) for the 90° light scattering of light (545 nm) to determine large amplitude swelling after addition of 2 mM atractyloside (Atr), 1 μM cyclosporin A (CsA; Novartis, Basel, Switzerland), 5 μM CaCl2, and/or 0.5 to 20 μM of pTarg-pTox or pTarg-pSave. For the determination of the ΔΨm, mitochondria (0.5 mg protein per ml) are incubated in a buffer supplemented with 1μM rhodamine 123 (Molecular Probes, Eugene, OR) and the dequenching of rhodamine fluorescence (excitation 505 nm, emission 525 nm) is measured as described (Shimizu et al., 1998). Supernatants from mitochondria (6800 g for 15 min; then 20 000 g for 1 h; 4° C.) are frozen at −80° C. until determination of apoptogenic activity on isolated nuclei, DEVD-afc cleaving activity, and immunodetection of cytochrome c and AIF. Cytochrome c and AIF are detected by means of a monoclonal antibody (clone 7H8.2C12, Pharmingen) and a polyclonal rabbit anti-serum (Susin et al. 1999) respectively.

purified VDAC = purified VDAC (Homo sapiens, UniProt P21796); assay: Surface plasmon resonance, immobilised peptides with purified VDAC; type: binding; conditions: for specific binding of VDAC: 50 nM VDAC
Procedure: (§1) Sensor Chips SA (streptavidin coated sensor chips) were used for immobilisation of the different peptides. Tox1 was immobilised at a density of 0.7 ng/mm^2, Tox0 at a density of 3.7 ng/mm^2,. Ctrl Tox0 at a density of 1.4 ng/mm^2, Tox5 at a density of 1 ng/mm^2, Tox6 at a density of 1 ng/mm^2, Save 1 at a density of 1.3 ng/mm^2, and the control peptide at a density of 0.8 ng/mm^2. Association and dissociation kinetics of ANT and VDAC interactions were followed at a rate of 10 μL/min for 10 minutes (5 minutes association and 5 minutes dissociation). The ligand was regenerated with a 1 minute flux of KSCN 3M. The obtained sensorgrams were analysed by the B1Aeval 3.1 software using the method of double references (Myszka D.G. 2000. Kinetic, equilibrium and thermodynamic analysis of macromolecular interactions with BIACORE. Methods Enzymol. 323:325-340). From the sensorgrams with the ligands were first substracted the sensorgrams obtained with the corresponding analyte solvents. A second substraction was performed with the sensorgrams obtained with the control peptide ligand. The control peptide for the Tox and Save peptides was biot-H19C corresponding to the sequence of the β2-adrenergic receptor (Lebesgue D., Wallukat G., Mijares A., Granier C., Argibay J., and Hoebeke J. (1998) An agonist-like monoclonal antibody to the human β 2-adrenergic receptor. Eur.J. Pharmacol. 348:123-133). The control peptide for Tox0 was Ctr1 Tox0.

purified ANT = target: T1, purified ANT (Rattus norvegicus, UniProt Q05962); type: binding; conditions: for binding to purified ANT: surface plasmon resonance; for Kd: one ANT concentration only, 50 nM, read-out: relative affinities of ANT for the peptide
T1 sequence (Q05962 1-298): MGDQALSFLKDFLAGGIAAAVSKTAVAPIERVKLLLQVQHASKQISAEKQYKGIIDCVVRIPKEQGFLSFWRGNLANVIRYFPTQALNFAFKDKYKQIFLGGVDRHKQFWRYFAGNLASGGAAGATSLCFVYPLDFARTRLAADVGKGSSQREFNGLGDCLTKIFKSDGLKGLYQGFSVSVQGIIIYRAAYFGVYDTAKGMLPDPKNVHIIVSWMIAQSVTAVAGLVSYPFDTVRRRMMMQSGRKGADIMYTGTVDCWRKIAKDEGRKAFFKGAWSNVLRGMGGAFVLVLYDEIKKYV
Procedure: as §1

Sequence of purified VDAC (P21796 whole entry, species assumed): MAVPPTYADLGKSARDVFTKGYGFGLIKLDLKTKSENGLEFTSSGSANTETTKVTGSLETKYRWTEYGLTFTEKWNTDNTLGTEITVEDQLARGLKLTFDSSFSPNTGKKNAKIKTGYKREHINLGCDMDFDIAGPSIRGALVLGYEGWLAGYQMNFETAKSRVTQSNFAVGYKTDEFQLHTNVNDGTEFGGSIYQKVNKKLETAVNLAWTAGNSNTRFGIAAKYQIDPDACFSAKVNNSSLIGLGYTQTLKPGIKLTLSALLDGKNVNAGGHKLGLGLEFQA

C=C1[C@@H]2CC[C@H]3[C@]4(C)C[C@H](O[C@@H]5O[C@H](CO)[C@@H](OS(=O)(=O)O)[C@H](OS(=O)(=O)O)[C@H]5OC(=O)CC(C)C)C[C@@H](C(=O)O)[C@H]4CC[C@]3(C2)[C@H]1O [Atractyloside, atractyloside, reference compound]
Mitrochondrial swelling (sw) % ([1]; 600 μM): 110%

[Ca+2] [Ca 2+, reference compound]
Mitrochondrial swelling (sw) % ([1]; 100 μM): 100%

C[C@H](NC(=O)[C@H](Cc1ccccc1)NC(=O)[C@H](Cc1ccc(O)cc1)NC(=O)[C@H](CCCNC(=N)N)NC(=O)[C@H](Cc1c[nH]c2ccccc12)NC(=O)[C@H](Cc1ccccc1)NC(=O)[C@H](CCC(N)=O)NC(=O)[C@@H](NC(=O)[C@H](CCCNC(=N)N)NC(=O)[C@H](CCCCN)NC(=O)[C@H](CC(=O)O)NC(=O)[C@H](CCCNC(=N)N)NC(=O)[C@H](CCCNC(=N)N)NC(=O)[C@H](CCCNC(=N)N)NC(=O)[C@H](CCC(N)=O)NC(=O)[C@H](CCCNC(=N)N)NC(=O)[C@H](CCCNC(=N)N)NC(=O)[C@H](CCCCN)NC(=O)[C@H](CCCCN)NC(=O)[C@H](CCCNC(=N)N)NC(=O)CCCC[C@@H]1SC[C@@H]2NC(=O)N[C@@H]21)[C@@H](C)O)C(=O)NCC(=O)N[C@@H](CC(N)=O)C(=O)O [Save1, Biot-RKKRRQRRR-DKRTQFWRYFAGN (hANT2)] (Biotin-RKKRRQRRRDKRTQFWRYFAGN-OH; C-terminus assumed)
specific binding of VDAC (purified VDAC): did not result in any specific binding
binding to purified ANT (purified ANT): Binds Purified ANT

C[C@@H](O)[C@H](NC(=O)[C@H](CCCNC(=N)N)NC(=O)[C@H](CCCCN)NC(=O)[C@H](CC(=O)O)NC(=O)CNC(=O)CNC(=O)[C@H](CS)NC(=O)[C@H](CCCNC(=N)N)NC(=O)CNC(=O)[C@H](CC(N)=O)NC(=O)[C@H](CS)NC(=O)CCCC[C@@H]1SC[C@@H]2NC(=O)N[C@@H]21)C(=O)N[C@@H](CCC(N)=O)C(=O)N[C@@H](Cc1ccccc1)C(=O)N[C@@H](Cc1c[nH]c2ccccc12)C(=O)N[C@@H](CCCNC(=N)N)C(=O)N[C@@H](Cc1ccc(O)cc1)C(=O)N[C@@H](Cc1ccccc1)C(=O)N1CCC[C@H]1C(=O)NCC(=O)N[C@@H](CC(N)=O)C(=O)O [Tox5, Biot-CNGRC-GG-DKRTQFWRYFPGN (hANT2m)] (Biotin-CNGRCGGDKRTQFWRYFPGN-OH; N-terminus and C-terminus assumed)
specific binding of VDAC (purified VDAC): did not result in any specific binding
Induction of Mitochondrial swelling (sw) [1]: ++
Kd (purified ANT): 0.1 nM
binding to purified ANT (purified ANT): Binds Purified ANT

C[C@H](NC(=O)CCCC[C@@H]1SC[C@@H]2NC(=O)N[C@@H]21)C(=O)N[C@@H](CS)C(=O)N[C@@H](CC(=O)O)C(=O)N[C@@H](CS)C(=O)N[C@@H](CCCNC(=N)N)C(=O)NCC(=O)N[C@@H](CC(=O)O)C(=O)N[C@@H](CS)C(=O)N[C@@H](Cc1ccccc1)C(=O)N[C@@H](CS)C(=O)NCC(=O)NCC(=O)N[C@@H](CC(=O)O)C(=O)N[C@@H](CCCCN)C(=O)N[C@@H](CCCNC(=N)N)C(=O)N[C@H](C(=O)N[C@@H](CCC(N)=O)C(=O)N[C@@H](Cc1ccccc1)C(=O)N[C@@H](Cc1c[nH]c2ccccc12)C(=O)N[C@@H](CCCNC(=N)N)C(=O)N[C@@H](Cc1ccc(O)cc1)C(=O)N[C@@H](Cc1ccccc1)C(=O)N1CCC[C@H]1C(=O)NCC(=O)N[C@@H](CC(N)=O)C(=O)O)[C@@H](C)O [Tox6, Biot-ACDCRGDCFC-GG-DKRTQFWRYFPGN (hANT2m)] (Biotin-ACDCRGDCFCGGDKRTQFWRYFPGN-OH; N-terminus and C-terminus assumed)
specific binding of VDAC (purified VDAC): did not result in any specific binding
Induction of Mitochondrial swelling (sw) [1]: ++
Kd (purified ANT): 0.7 nM
binding to purified ANT (purified ANT): Binds Purified ANT

Biot-CNGRC-GG-CNGRC [Ctr2Tox1]
Induction of Mitochondrial swelling (sw) [1]: −

Biot-CNGRC-GG-HFAIGCRHSAIG (Biotin-CNGRCGGHFAIGCRHSAIG; cysteine pairing not given here) [Ctr1Tox1]
Induction of Mitochondrial swelling (sw) [1]: −

Biot-CNGRC-GG-HFRIGCRHSRIG [Tox1]
association of VDAC with the peptide ligand (purified VDAC; VDAC concentrations ten times higher than ANT): extremely low association
Induction of Mitochondrial swelling (sw) [1]: ++
binding to purified ANT (purified ANT): Binds Purified ANT

Biot-GG-HFRIGCRHSRIG [Ctr3Tox1]
Induction of Mitochondrial swelling (sw) [1]: +
